Like-named read-outs stand apart in the source and are kept apart here.
Assays:
JFH1 HCV (genotype 2a) = format: cell-based, hepatitis C virus
[1] = system: Con1 subgenomic HCV replicon (genotype 1b); experiment: Con1 subgenomic replicon HCV RNA in SgPC2 cells (Northern blot); format: cell-based, hepatitis C virus; settings: 24 h; for HCV RNA level / HCV replication in SgPC2 cells: 5 μM acetaldehyde, 5 μM acetate, 0.2% isopropyl alcohol, 2 mM acetone, 25 mM tert-butanol, 5 mM lactate; for potentiation of HCV RNA replication by ethanol, acetaldehyde, isopropyl alcohol, acetone, and acetate: 30 min pretreatment with 5 μM lovastatin, 5 μM fluvastatin, 5 μg/ml TOFA or 5 μg/ml cerulenin
Text: (§1) The genotype 2a HCV constructs, pJFH1 (produces infectious virus particles), replicative-null pJFH1-GND, and subgenomic pSgJFH1-Luc (contains a luciferase reporter gene), are described elsewhere (23, 24). Subgenomic HCV replicons are bicistronic constructs that express only the nonstructural proteins of HCV under the control of encephalocarditis virus IRES; neomycin resistance or firefly luciferase gene is under the control of the HCV IRES (15, 22, 24). These replicons support HCV RNA replication but no virus is formed in cell culture. Huh7 cell clones (SgPC2 cells, Clone B) supporting continuous replication of subgenomic HCV replicon of genotype 1b (Con1 sequence) were also used (17, 22).
(§2) The in vitro transcription, and transfection of HCV RNA, and Huh7 human hepatoma cell culture were performed as previously described (17). For experiments involving stable clones, cells were cultured in medium supplemented with 0.4-0.5 mg/mL G418, and G418 was removed from cell culture medium one day prior to cell treatments, which were performed as described in Results. For the in vitro infectivity assays, 2 ml of the extracellular medium from JFH1 RNA-transfected cells was used to inoculate naive Huh7 or Huh7.5 cells with 3 ml of fresh medium, as described (23, 25). Treatments were initiated 24 hours after infection and the cells were harvested after another 24 or 48 hrs.
(§3) Intracellular RNA extraction and northern blots were carried out, as described (16, 17). DNA probes were prepared from nucleotides (“nt.”) 4128-8273 or 358-2816 of JFH1, generated with ScaI and ApaL I, respectively, or nt. 3669 to 6016 of the Con1 subgenomic replicons. Images were quantified by densitometry, using Optiquant Cyclone 4.00 (Perkin Elmer), and data were normalized by glyceraldehyde 3-phosphate dehydrogenase (GAPDH) mRNA content.

NADH/NAD+ ratio = experiment: NADH/NAD+ enzymatic NADH recycling assay; format: cell-based, human; settings: for NADH/NAD+ ratio: SgPC2 cells, 0.2% ethanol, 5 μM acetaldehyde, 5 μM acetate, 0.2% isopropyl alcohol, 2 mM acetone, 25 mM tert-butanol; for NADH/NAD+ ratio in ethanol-treated cells: with cyanamide, 4 MP, and DADS, data not shown
[2] = system: Huh7 human hepatoma cells
Protocol: NADH and NAD+ levels were determined by enzymatic NADH recycling assay, using the NAD+/NADH Quantification Kit from Biovision, per manufacturers recommendations with an optional filtration step that used Microcon YM-10 (Millipore). Total ATP content was measured using Somatic Cell ATP Assay Kit from Sigma-Aldrich. The data were normalized by total protein content, determined with BCA assay kit from Pierce.
To examine whether ethanol increased the complete replication of HCV, positive-sense genomic JFH1 RNA was produced by in vitro transcription, using T7 RNA polymerase, and transfected into Huh7 human hepatoma cells. Then, the transfected cells were exposed to 0-1.0% (v/v; 0-172 mM) ethanol once daily with a change of medium each day for 48 hrs. Then, the cells and the cell culture medium were harvested and analyzed for intracellular and RNase A-resistant extracellular HCV RNA's by a combination of Northern blots and qRT-PCR.

HCV = settings: references 53, 54; cited from earlier work
[3] = system: intracellular cholesterol; experiment: Total intracellular cholesterol content in SgPC2 cells; format: cell-based, human; settings: 24 h
Protocol: FIG. 7. […] SgPC2 cells were treated for 24 h with (A and B) 0.2% ethanol, 5 μM acetaldehyde, 0.2% isopropyl alcohol, 2 mM acetone, 5 μM acetate±30 min pretreatment with (A) 5 μM lovastatin, 5 μM fluvastatin, (B) 5 μg/ml TOFA, 5 μg/ml cerulenin, or with (C) 2 mM β-mercaptopropionic acid (β-MPA). Then, HCV RNA levels were monitored by Northern blot and quantified by densitometry (n=3). D, SgPC2 cells, treated for 24 h with ethanol, acetaldehyde, acetone, and acetate±lovastatin, were monitored for cholesterol levels (n=3). Lovastatin was activated, as described, before use (29). *, indicates statistically significant difference for indicated sample sizes (p<0.05)

[4] = system: SgJFH1-Luc subgenomic HCV replicon (genotype 2a); format: cell-based, hepatitis C virus
Text: as §1
After various treatments, SgJFH1 Luc RNA-transfected cells were lysed with 1× Reporter Lysis Buffer, and the luciferase activity was determined using Luciferase Reporter Assay Kit (Promega Corp.) (24). Luciferase activities were normalized by total protein content, determined with bicinchoninic acid (BCA) assay kit from Pierce.
To test whether the JFH1 RNA replication was also affected by ethanol, Huh7 cells were transfected with JFH1 SgJFH1-Luc RNA and exposed the cells to ethanol for 48 hours. Then, HCV replication was monitored by measuring the firefly luciferase activity (24).

[5] = system: Con1 HCV subgenomic replicon; experiment: Con1 subgenomic replicon HCV RNA in Clone B cells; format: cell-based, hepatitis C virus; settings: 24 hrs, response compared with SgPC2 cells
Text: as §1, §3

JFH1 virus = experiment: HCV RNA in naive Huh7 or Huh7.5 cells inoculated with JFH1 virus-containing medium; format: cell-based, hepatitis C virus
Protocol: as §2
The total intracellular RNA was obtained from cells using Trizol (Invitrogen). To obtain extracellular HCV RNA, cell culture medium samples were first treated with RNase A (100 μg/ml) for 30 min at room temperature, then RNA was extracted using Trizol LS and glycogen as a carrier. HCV RNA was quantified by qRT-PCR as described (17, 23). For JFH1, the primer sequences were 5′ […] 3′ (nt 146 to 164; forward, SEQ ID NO.: 1), and 5′ […] 3′ (nt 277 to 295; reverse, SEQ ID NO.: 2), and the sequence of the fluorogenic probe, labeled with 6-FAM and TAMRA (Biosearch Technologies, Inc.), was 5′ […] 3′ (nt 168 to 188, SEQ ID NO.: 3). The primer and probe sequences for qRT-PCR analysis of Con1 RNA's were described previously (17). Standard curves were generated using in vitro-transcribed HCV RNA's. Intracellular HCV RNA levels were normalized by 18 S rRNA or GAPDH mRNA.

[6] = BSO with 2 mM GSH or GSH ester, 24 hrs
[7] = 0.2% ethanol ± 0.1 mM 4 MP plus 25 μM DADS
[8] = acetaldehyde at physiologically relevant concentrations, 24 hrs

CCOC(=O)CNC(=O)[C@H](CS)NC(=O)CC[C@H](N)C(=O)O [GSH ethyl ester]
restoration of extracellular HCV RNA in BSO-treated cells (JFH1 HCV (genotype 2a); [6]): partially restored | restoration of intracellular HCV RNA in BSO-treated cells (JFH1 HCV (genotype 2a); [6]): partially restored

CC(C)O [isopropyl alcohol]
HCV RNA level / HCV replication in SgPC2 cells [1]: increased | NADH/NAD+ ratio (NADH/NAD+ ratio; 3 h): increases

CC(C)(C)O [tert-butanol]
HCV RNA level / HCV replication in SgPC2 cells [1]: did not elevate | NADH/NAD+ ratio (NADH/NAD+ ratio; 3 h): did not elevate

OO [H2O2, Hydrogen peroxide]
cytotoxicity in JFH1 cells ([2]; 100 μM H2O2): some cytotoxicity | cytotoxicity in JFH1 cells ([2]; 25 and 50 μM H2O2): clearly within the subtoxic range | JFH1 RNA levels (JFH1 HCV (genotype 2a); 25, 50, and 100 μM bolus H2O2, 24 hrs): decreased

C/C=C/C/C=C/CCC(=O)[C@H]1O[C@H]1C(N)=O [cerulenin]
potentiation of HCV RNA replication by ethanol, acetaldehyde, isopropyl alcohol, acetone, and acetate ([1]; SgPC2 cells): almost completely inhibited | basal level of HCV replication (HCV): suppress

CC(O)C(=O)O (centres unmarked) [lactate]
HCV RNA level / HCV replication in SgPC2 cells [1]: little to no effect | total intracellular cholesterol content [3]: no significant effect | NADH levels (NADH/NAD+ ratio; 5 mM lactate, 3 h): 235.9±11.9 % of the control level

C=CCSSCC=C [DADS]
potentiation of HCV replication by ethanol [1, 7]: suppressed | NADH/NAD+ ratio in ethanol-treated cells (NADH/NAD+ ratio): decreases

CCCCCCCCCCCCCCOc1ccc(C(=O)O)o1 [TOFA, 5-(Tetradecyloxy)-2-furoic acid]
potentiation of HCV RNA replication by ethanol, acetaldehyde, isopropyl alcohol, acetone, and acetate ([1]; SgPC2 cells): almost completely inhibited | basal level of HCV replication (HCV): suppress

CC(=O)O [acetate]
HCV RNA level / HCV replication in SgPC2 cells [1]: increased | total intracellular cholesterol content [3]: increased | NADH/NAD+ ratio (NADH/NAD+ ratio; 3 h): increases

CC(C)=O [acetone]
HCV RNA level / HCV replication in SgPC2 cells [1]: increased | total intracellular cholesterol content [3]: increased | NADH/NAD+ ratio (NADH/NAD+ ratio; 3 h): increases

N#CN [cyanamide]
potentiation of HCV replication by ethanol ([1]; 0.2% ethanol ± 0.1 mM cyanamide): suppressed | NADH/NAD+ ratio in ethanol-treated cells (NADH/NAD+ ratio): decreases

N[C@@H](CCC(=O)N[C@@H](CS)C(=O)NCC(=O)O)C(=O)O [GSH, glutathione]
restoration of intracellular HCV RNA in BSO-treated cells (JFH1 HCV (genotype 2a); [6]): could not restore

CC=O [acetaldehyde]
HCV RNA content in non-virus producing JFH1 cells [4, 8]: significantly increased | HCV RNA content in virus-producing JFH1 cells (JFH1 HCV (genotype 2a); [8]): significantly increased | HCV RNA level / HCV replication in SgPC2 cells [1]: elevated | total intracellular cholesterol content [3]: increased | HCV RNA in Clone B cells [5]: responded similarly | NADH/NAD+ ratio (NADH/NAD+ ratio; 3 h): increases | HCV replication in RIG-1-defective Huh7.5 cells (JFH1 virus; FIG. 5, also data not shown): increase | HCV replication in naive cells infected with virus-containing medium (JFH1 virus; Huh7.5 cells, acetaldehyde 24 hrs): significant increases

glucose oxidase [GO]
effect on the suppression of subgenomic JFH1 RNA replication by BSO [4]: exacerbated the suppression | decrease of intracellular JFH1 RNA (JFH1 HCV (genotype 2a); 0.25 mU/mL GO + glucose, 24 hrs): 30±8% | effect on the suppression of HCV RNA by BSO (JFH1 HCV (genotype 2a); GO + glucose after 16 hr pre-treatment with 20 μM BSO, 24 hrs): exacerbated the suppression

Cc1cn[nH]c1 [4 MP, 4-methylpyrazole]
potentiation of HCV replication by ethanol [1, 7]: suppressed | NADH/NAD+ ratio in ethanol-treated cells (NADH/NAD+ ratio): decreases

O=C(O)CCS [β-mercaptopropionic acid]
increase in HCV replication ([1]; 2 mM β-mercaptopropionic acid, SgPC2 cells): 15.2±1.7 fold

CC[C@H](C)C(=O)O[C@H]1C[C@@H](C)C=C2C=C[C@H](C)[C@H](CC[C@@H]3C[C@@H](O)CC(=O)O3)[C@H]21 [lovastatin, Lovastatin]
potentiation of HCV RNA replication by ethanol, acetaldehyde, isopropyl alcohol, acetone, and acetate ([1]; SgPC2 cells): almost completely inhibited | increase of intracellular cholesterol content by ethanol, acetaldehyde, acetone, and acetate ([3]; ± lovastatin): attenuated | basal level of HCV replication (HCV): suppress

Reference: patent US20100226888A1, “Ethanol Enhances the Complete Replication of Hepatitis C Virus: the Role of Acetaldehyde” (priority 2009, published 2010)
